# Test results as given in patent EP1337551B1, “SUBSTANCE P ANALOGS FOR THE TREATMENT OF CANCER” (DABUR PHARMA LTD., priority 2000, dated 2002).
# Residues, ends and D or L forms follow the SMILES beside them.
# Legend:
# Su.86.86 (pancreas) = assay: In vitro cytotoxic activity, MTT assay, 72 hours; format: cell-based, human
# Description: (§1) The cytotoxic activity of synthesized peptides was tested on six human tumor cell lines namely MCF7 (breast), U373 (glioblastoma), PTC, (colon), L132 (lung), Su.86.86 (pancreas), and KB (oral). The tumor cells were collected at exponential growth phase and resuspended in medium (1.5 x 10^6 cells/ml in RPMI 1640 containing 10% FBS). 150µL of medium was added to the wells of a 96-well tissue culture plate (Nunc, Denmark) followed by 30µl of cell suspension. The plate was left in an incubator (37°C, 5% CO2) overnight. 20µl of the peptide (100 pM to 10 µM concentration) was added to marked wells of the 96-well plate. Each concentration was plated in triplicate. 20µl of medium alone was added to control wells while wells without cells served as blanks. A total volume of 200µL was ensured in each well and plate was left in incubator (37°C, 5% CO2). After 72 hours of incubation an MTT assay was performed and percentage cytotoxicity was calculated with respect to control cells.
# MCF7 (breast) = assay: In vitro cytotoxic activity, MTT assay, 72 hours; format: cell-based, human
# Description: as §1
# PTC, (colon) = assay: In vitro cytotoxic activity, MTT assay, 72 hours; format: cell-based, human
# Description: as §1
# L132 (lung) = assay: In vitro cytotoxic activity, MTT assay, 72 hours; format: cell-based, human
# Description: as §1
# U373 (glioblastoma) = assay: In vitro cytotoxic activity, MTT assay, 72 hours; format: cell-based, human
# Description: as §1
# HBL100 (Breast) = assay: In vitro cytotoxic activity of lipo conjugates, MTT assay, 48 hours; format: cell-based
# Description: (§2) The cytotoxic effect of lipo-conjugates of substance P analogs SEQ ID NO: 6, SEQ ID NO: 7 and SEQ ID NO: 8, was studied by MTT assay which is based on the principle of uptake of MTT [3-[4,5-dimethylthiazol-2-yl]-2,5-diphenyl tetrazolium bromide], a tetrazolium salt by the metabolically active cells where it is metabolized by active mitochondria in to a blue colored formazan product which can be read spectrophotometrically. Briefly, tumor cells - KB (Oral squamous), U87MG (Blioblastoma), HBL100 (Breast), HeP2 (Larngeal), ECV304 (Endothelial), PA-1 (Ovary) and L132 (Lunng) were incubated with the peptide analogs for 48 hours at 37°C in a 96-well culture plate, followed by the addition of 100 µg MTT and further incubation of 1 hour. The formazan crystals formed inside the cells were dissolved with a detergent comprising of 10% Sodium dodecyl sulfate and 0.01 N HCl and optical density read on a multiscan ELISA reader. The optical density was directly proportional to the number of proliferating and metabolically active cells. SEQ ID NO: 6
# KB (Oral squamous) = assay: as above; format: cell-based
# Description: as §2
# HeP2 (Larngeal) = assay: as above; format: cell-based
# Description: as §2
# ECV304 (Endothelial) = assay: as above; format: cell-based
# Description: as §2
# PA-1 (Ovary) = assay: as above; format: cell-based
# Description: as §2
# L132 (Lunng) = assay: as above; format: cell-based
# Description: as §2
# U87MG (Blioblastoma) = assay: as above; format: cell-based
# Description: as §2
compound,measurement,setting,value
"CC(C)C[C@H](NC(=O)[C@@H](Cc1c[nH]c2ccccc12)NC(=O)[C@H](Cc1ccccc1)NC(=O)[C@@H](Cc1c[nH]c2ccccc12)NC(=O)[C@H](CCC(N)=O)NC(=O)[C@@H](Cc1ccccc1)NC(=O)[C@@H]1CCCN1C(=O)[C@H](CCCCN)NC(=O)[C@@H]1CCCN1C(=O)[C@H](N)CCCNC(=N)N)C(=O)NC1(C(N)=O)CCCC1 [SEQ ID NO: 5, D-Arg-Pro-Lys-Pro-D-Phe-Gln-D-Trp-Phe-D-Trp-Leu-Ac5c-NH2] (HELM PEPTIDE1{[dR].P.K.P.[dF].Q.[dW].F.[dW].L.[O=C(C1(N[*:1])CCCC1)[*:2]].[am]}$$$$V2.0)",Percentage cytotoxicity at different concentrations,"Su.86.86 (pancreas); Su8686, 100pM",Nil
same,Percentage cytotoxicity at different concentrations,"Su.86.86 (pancreas); Su8686, 1nM",3 ± 0.3%
same,Percentage cytotoxicity at different concentrations,"Su.86.86 (pancreas); Su8686, 10nM",12 ± 2.8%
same,Percentage cytotoxicity at different concentrations,"Su.86.86 (pancreas); Su8686, 100nM",9 ± 3.8%
same,Percentage cytotoxicity at different concentrations,"Su.86.86 (pancreas); Su8686, 1µM",22 ± 3.3%
same,Percentage cytotoxicity at different concentrations,"Su.86.86 (pancreas); Su8686, 10µM",25 ± 4.3%
same,Percentage cytotoxicity at different concentrations,"MCF7 (breast); MCF-7, 100pM",Nil
same,Percentage cytotoxicity at different concentrations,"MCF7 (breast); MCF-7, 1nM",2.4 ± 1.2%
same,Percentage cytotoxicity at different concentrations,"MCF7 (breast); MCF-7, 10nM",7.5 ± 1.5%
same,Percentage cytotoxicity at different concentrations,"MCF7 (breast); MCF-7, 100nM",8.6 ± 1.6%
same,Percentage cytotoxicity at different concentrations,"MCF7 (breast); MCF-7, 1µM",12.4 ± 2.6%
same,Percentage cytotoxicity at different concentrations,"MCF7 (breast); MCF-7, 10µM",18.4 ± 6.4%
same,Percentage cytotoxicity at different concentrations,"PTC, (colon); 100pM",Nil
same,Percentage cytotoxicity at different concentrations,"PTC, (colon); 1nM",3.1 ± 0.5%
same,Percentage cytotoxicity at different concentrations,"PTC, (colon); 10nM",3.1 ± 1.9%
same,Percentage cytotoxicity at different concentrations,"PTC, (colon); 100nM",6.7 ± 1.3%
same,Percentage cytotoxicity at different concentrations,"PTC, (colon); 1µM",25.5 ± 4.8%
same,Percentage cytotoxicity at different concentrations,"PTC, (colon); 10µM",35.5 ± 4.8%
same,Percentage cytotoxicity at different concentrations,L132 (lung); 100pM,18±3.4%
same,Percentage cytotoxicity at different concentrations,L132 (lung); 1nM,15 ± 5.8%
same,Percentage cytotoxicity at different concentrations,L132 (lung); 10nM,19 ± 3.3%
same,Percentage cytotoxicity at different concentrations,L132 (lung); 100nM,21 ± 1.2%
same,Percentage cytotoxicity at different concentrations,L132 (lung); 1µM,20 ± 2.3%
same,Percentage cytotoxicity at different concentrations,L132 (lung); 10µM,23 ± 2.3%
same,Percentage cytotoxicity at different concentrations,U373 (glioblastoma); 100pM,3.7± 0.5%
same,Percentage cytotoxicity at different concentrations,U373 (glioblastoma); 1nM,3.1 ± 0.5%
same,Percentage cytotoxicity at different concentrations,U373 (glioblastoma); 10nM,5.0 ± 0.7%
same,Percentage cytotoxicity at different concentrations,U373 (glioblastoma); 100nM,4.5 ± 0.5%
same,Percentage cytotoxicity at different concentrations,U373 (glioblastoma); 1µM,17.06 ± 1.9%
same,Percentage cytotoxicity at different concentrations,U373 (glioblastoma); 10µM,37.2 ± 5.3%
"CC(=O)N[C@H](CCCNC(=N)N)C(=O)N1CCC[C@H]1C(=O)N[C@@H](CCCCN)C(=O)N1CCC[C@H]1C(=O)N[C@H](Cc1ccccc1)C(=O)N[C@@H](CCC(N)=O)C(=O)N[C@H](Cc1c[nH]c2ccccc12)C(=O)N[C@@H](Cc1ccccc1)C(=O)N[C@H](Cc1c[nH]c2ccccc12)C(=O)N[C@@H](CC(C)C)C(=O)NC1(C(N)=O)CCCC1 [SEQ ID NO: 6, Acetyl-D-Arg-Pro-Lys-Pro-D-Phe-Gln-D-Trp-Phe-D-Trp-Leu-Ac5c-NH2] (HELM PEPTIDE1{[ac].[dR].P.K.P.[dF].Q.[dW].F.[dW].L.[O=C(C1(N[*:1])CCCC1)[*:2]].[am]}$$$$V2.0)",Percentage cytotoxicity at different concentrations,HBL100 (Breast); 1nM,28.5 ± 4.5%
same,Percentage cytotoxicity at different concentrations,HBL100 (Breast); 10nM,28.4 ± 1.8%
same,Percentage cytotoxicity at different concentrations,HBL100 (Breast); 100nM,31.8 ± 1.5%
same,Percentage cytotoxicity at different concentrations,KB (Oral squamous); 1nM,28.0 ± 2.3%
same,Percentage cytotoxicity at different concentrations,KB (Oral squamous); 10nM,29.0 ± 1.3%
same,Percentage cytotoxicity at different concentrations,KB (Oral squamous); 100nM,18.0 ± 2.6%
same,Percentage cytotoxicity at different concentrations,KB (Oral squamous); 1µM,2.0 ± 1.3%
same,Percentage cytotoxicity at different concentrations,HeP2 (Larngeal); 1nM,10.0 ± 3.2%
same,Percentage cytotoxicity at different concentrations,HeP2 (Larngeal); 10nM,14.8 ± 4.4%
same,Percentage cytotoxicity at different concentrations,HeP2 (Larngeal); 100nM,24.9 ± 1.5%
same,Percentage cytotoxicity at different concentrations,HeP2 (Larngeal); 1µM,13.8 ± 2.4%
same,Percentage cytotoxicity at different concentrations,ECV304 (Endothelial); 1nM,9.0 ± 3.7%
same,Percentage cytotoxicity at different concentrations,ECV304 (Endothelial); 10nM,13.8 ± 3.3%
same,Percentage cytotoxicity at different concentrations,ECV304 (Endothelial); 100nM,15.9 ± 2.3%
same,Percentage cytotoxicity at different concentrations,ECV304 (Endothelial); 1µM,12.9 ± 2.2%
same,Percentage cytotoxicity at different concentrations,PA-1 (Ovary); 1nM,8.0 ± 24%
same,Percentage cytotoxicity at different concentrations,PA-1 (Ovary); 10nM,22.0 ± 3.4%
same,Percentage cytotoxicity at different concentrations,PA-1 (Ovary); 100nM,25.4 ± 2.6%
same,Percentage cytotoxicity at different concentrations,PA-1 (Ovary); 1µM,13.9 ± 3.3%
same,Percentage cytotoxicity at different concentrations,L132 (Lunng); 1nM,14.9 ± 2.9%
same,Percentage cytotoxicity at different concentrations,L132 (Lunng); 10nM,24.7 ± 3.2%
same,Percentage cytotoxicity at different concentrations,L132 (Lunng); 100nM,19.5 ± 4.6%
same,Percentage cytotoxicity at different concentrations,L132 (Lunng); 1µM,19.7 ± 2.5%
same,Percentage cytotoxicity at different concentrations,U87MG (Blioblastoma); 1nM,26.9 ± 3.5%
same,Percentage cytotoxicity at different concentrations,U87MG (Blioblastoma); 10nM,32.9 ± 2.4%
same,Percentage cytotoxicity at different concentrations,U87MG (Blioblastoma); 100nM,34.7 ± 1.9%
same,Percentage cytotoxicity at different concentrations,U87MG (Blioblastoma); 1µM,31.8 ± 3.2%
"CCCCCCCC(=O)N[C@H](CCCNC(=N)N)C(=O)N1CCC[C@H]1C(=O)N[C@@H](CCCCN)C(=O)N1CCC[C@H]1C(=O)N[C@H](Cc1ccccc1)C(=O)N[C@@H](CCC(N)=O)C(=O)N[C@H](Cc1c[nH]c2ccccc12)C(=O)N[C@@H](Cc1ccccc1)C(=O)N[C@H](Cc1c[nH]c2ccccc12)C(=O)N[C@@H](CC(C)C)C(=O)NC1(C(N)=O)CCCC1 [SEQ ID NO: 8, Octanoyl-D-Arg-Pro-Lys-Pro-D-Phe-Gln-D-Trp-Phe-D-Trp-Leu-Ac5c-NH2] (HELM PEPTIDE1{[CCCCCCCC(=O)[*:2]].[dR].P.K.P.[dF].Q.[dW].F.[dW].L.[O=C(C1(N[*:1])CCCC1)[*:2]].[am]}$$$$V2.0)",Percentage cytotoxicity at different concentrations,HBL100 (Breast); 1nM,9.0 ± 4.5%
same,Percentage cytotoxicity at different concentrations,HBL100 (Breast); 10nM,28.6 ± 3.8%
same,Percentage cytotoxicity at different concentrations,HBL100 (Breast); 100nM,30.6 ± 1.5%
same,Percentage cytotoxicity at different concentrations,HBL100 (Breast); 1µM,25.8 ± 1.4%
same,Percentage cytotoxicity at different concentrations,KB (Oral squamous); 1nM,28.0 ± 3.5%
same,Percentage cytotoxicity at different concentrations,KB (Oral squamous); 10nM,29.0%
same,Percentage cytotoxicity at different concentrations,KB (Oral squamous); 100nM,23.0 ± 3.2%
same,Percentage cytotoxicity at different concentrations,KB (Oral squamous); 1µM,19.0 ± 4.3%
same,Percentage cytotoxicity at different concentrations,HeP2 (Larngeal); 1nM,12.5 ± 3.2%
same,Percentage cytotoxicity at different concentrations,HeP2 (Larngeal); 10nM,15.5 ± 4.4%
same,Percentage cytotoxicity at different concentrations,HeP2 (Larngeal); 100nM,24.9 ± 2.5%
same,Percentage cytotoxicity at different concentrations,HeP2 (Larngeal); 1µM,12.9 ± 3.4%
same,Percentage cytotoxicity at different concentrations,ECV304 (Endothelial); 1nM,16.9 ± 3.5%
same,Percentage cytotoxicity at different concentrations,ECV304 (Endothelial); 10nM,31.9 ± 3.3%
same,Percentage cytotoxicity at different concentrations,ECV304 (Endothelial); 100nM,24.6 ± 2.3%
same,Percentage cytotoxicity at different concentrations,ECV304 (Endothelial); 1µM,17.9 ± 2.4%
same,Percentage cytotoxicity at different concentrations,PA-1 (Ovary); 1nM,22.1 ± 3.4%
same,Percentage cytotoxicity at different concentrations,PA-1 (Ovary); 10nM,26.9 ± 3.4%
same,Percentage cytotoxicity at different concentrations,PA-1 (Ovary); 100nM,39.0 ± 2.6%
same,Percentage cytotoxicity at different concentrations,PA-1 (Ovary); 1µM,34.4 ± 3.4%
same,Percentage cytotoxicity at different concentrations,L132 (Lunng); 1nM,11.9 ± 4.9%
same,Percentage cytotoxicity at different concentrations,L132 (Lunng); 10nM,27.5 ± 3.5%
same,Percentage cytotoxicity at different concentrations,L132 (Lunng); 100nM,16.9 ± 3.6%
same,Percentage cytotoxicity at different concentrations,L132 (Lunng); 1µM,18.6 ± 2.4%
same,Percentage cytotoxicity at different concentrations,U87MG (Blioblastoma); 1nM,23.9 ± 3.3%
same,Percentage cytotoxicity at different concentrations,U87MG (Blioblastoma); 10nM,33.9 ± 2.2%
same,Percentage cytotoxicity at different concentrations,U87MG (Blioblastoma); 100nM,28.9 ± 1.4%
same,Percentage cytotoxicity at different concentrations,U87MG (Blioblastoma); 1µM,21.8 ± 3.4%
